Tested on: MV-4-11 cells
Experiment: Gene expression microarray analysis (Affymetrix PrimeView) and GSEA
Format: cell-based, human
Set-up: RFU PODN (11730768_x_at) / Fold change /veh PODN (11730768_x_at) / RFU LINC00158 (11744669_a_at) / Fold change /veh LINC00158 (11744669_a_at) / RFU DUSP10 (11751237_a_at) / Fold change /veh DUSP10 (11751237_a_at) / RFU ID3 (11757404_x_at) / Fold change /veh ID3 (11757404_x_at) / RFU PLEKHG5 (11737974_s_at) / Fold change /veh PLEKHG5 (11737974_s_at) / RFU LRRC4B (11730491_at) / Fold change /veh LRRC4B (11730491_at) / RFU GIMAP4 (11747438_a_at) / Fold change /veh GIMAP4 (11747438_a_at) / RFU KRT8 (11758183_x_at) / Fold change /veh KRT8 (11758183_x_at) / RFU CNN1 (11734310_a_at) / Fold change /veh CNN1 (11734310_a_at) / RFU VPS37D (11726825_at) / Fold change /veh VPS37D (11726825_at) / RFU C10orf10 (11716522_x_at) / Fold change /veh C10orf10 (11716522_x_at) / RFU KIR2DL2 /// KIR2DL4 /// KIR2DL5A /// KIR2DL5B /// KIR2DS1 /// KIR2DS2 /// KIR2DS3 /// KIR2DS4 /// KIR3DL3 /// KIR3DL3 /// KIR3DS1 (11738374_at) / Fold change /veh KIR2DL2 /// KIR2DL4 /// KIR2DL5A /// KIR2DL5B /// KIR2DS1 /// KIR2DS2 /// KIR2DS3 /// KIR2DS4 /// KIR3DL3 /// KIR3DL3 /// KIR3DS1 (11738374_at) / RFU C1QL1 (11718748_at) / Fold change /veh C1QL1 (11718748_at) / RFU TMPRSS4 (11747572_a_at) / Fold change /veh TMPRSS4 (11747572_a_at) / RFU HAMP (11756126_x_at) / Fold change /veh HAMP (11756126_x_at) / RFU RNFT2 (11725882_a_at) / Fold change /veh RNFT2 (11725882_a_at) / RFU NR4A2 (11747474_a_at) / Fold change /veh NR4A2 (11747474_a_at) / RFU ABCC12 (11746883_a_at) / Fold change /veh ABCC12 (11746883_a_at) / RFU TMEM136 (11760407_x_at) / Fold change /veh TMEM136 (11760407_x_at) / RFU CLDN22 /// WWC2 (11732394_at) / Fold change /veh CLDN22 /// WWC2 (11732394_at) / RFU HLA-DPB1 (11760878_x_at) / Fold change /veh HLA-DPB1 (11760878_x_at) / RFU SPINT1 (11716480_a_at) / Fold change /veh SPINT1 (11716480_a_at) / RFU GAP43 (11754022_s_at) / Fold change /veh GAP43 (11754022_s_at) / RFU A4GNT (11735810_at) / Fold change /veh A4GNT (11735810_at) / RFU PRB3 (11715151_x_at) / Fold change /veh PRB3 (11715151_x_at) / RFU TUBB4B (11761932_at) / Fold change /veh TUBB4B (11761932_at) / RFU CAPN14 (11732068_a_at) / Fold change /veh CAPN14 (11732068_a_at) / RFU TMCC2 (11721928_a_at) / Fold change /veh TMCC2 (11721928_a_at) / RFU IRGQ (11745062_a_at) / Fold change /veh IRGQ (11745062_a_at) / RFU FAM174B (11720279_a_at) / Fold change /veh FAM174B (11720279_a_at) / RFU TMPRSS4 (11748680_a_at) / Fold change /veh TMPRSS4 (11748680_a_at) / RFU FAM212B (11763350_a_at) / Fold change /veh FAM212B (11763350_a_at) / RFU PLEKHG5 (11743358_a_at) / Fold change /veh PLEKHG5 (11743358_a_at) / RFU ZSCAN30 (11745921_a_at) / Fold change /veh ZSCAN30 (11745921_a_at) / RFU CMKLR1 (11741424_a_at) / Fold change /veh CMKLR1 (11741424_a_at) / RFU LOC101060620 /// MAPK8IP1 (11723275_at) / Fold change /veh LOC101060620 /// MAPK8IP1 (11723275_at) / RFU SPTSSB (11747773_x_at) / Fold change /veh SPTSSB (11747773_x_at) / RFU PRSS12 (11739890_at) / Fold change /veh PRSS12 (11739890_at) / RFU BIN1 (11741810_x_at) / Fold change /veh BIN1 (11741810_x_at) / RFU WNT11 (11732464_a_at) / Fold change /veh WNT11 (11732464_a_at) / RFU C10orf10 (11716521_a_at) / Fold change /veh C10orf10 (11716521_a_at) / RFU C5orf56 (11738089_at) / Fold change /veh C5orf56 (11738089_at) / RFU CYB561 (11721691_x_at) / Fold change /veh CYB561 (11721691_x_at) / RFU ANKRD19P (11752326_a_at) / Fold change /veh ANKRD19P (11752326_a_at) / RFU OR2T12 /// OR2T33 /// OR2T8 (11738714_s_at) / Fold change /veh OR2T12 /// OR2T33 /// OR2T8 (11738714_s_at) / RFU VCAN (11748164_a_at) / Fold change /veh VCAN (11748164_a_at) / RFU JSRP1 (11732532_at) / Fold change /veh JSRP1 (11732532_at) / RFU KRTAP10-11 (11738290_x_at) / Fold change /veh KRTAP10-11 (11738290_x_at) / RFU MYO3A (11730013_a_at) / Fold change /veh MYO3A (11730013_a_at) / RFU EBF3 (11725865_a_at) / Fold change /veh EBF3 (11725865_a_at) / RFU CAMK2N1 (11719241_x_at) / Fold change /veh CAMK2N1 (11719241_x_at) / RFU C5orf56 (11738088_a_at) / Fold change /veh C5orf56 (11738088_a_at) / RFU OLFML3 (11715873_a_at) / Fold change /veh OLFML3 (11715873_a_at) / RFU LOC100653217 /// NTM (11731650_a_at) / Fold change /veh LOC100653217 /// NTM (11731650_a_at) / RFU MAPK11 (11762145_a_at) / Fold change /veh MAPK11 (11762145_a_at) / RFU FIZ1 (11724087_x_at) / Fold change /veh FIZ1 (11724087_x_at) / RFU OASL (11726364_x_at) / Fold change /veh OASL (11726364_x_at) / RFU SOX15 (11748057_x_at) / Fold change /veh SOX15 (11748057_x_at) / RFU CD79A (11719716_a_at) / Fold change /veh CD79A (11719716_a_at) / RFU HIST1H1D (11736915_at) / Fold change /veh HIST1H1D (11736915_at) / RFU CASKIN2 (11723855_a_at) / Fold change /veh CASKIN2 (11723855_a_at) / RFU LOC730098 (11760151_x_at) / Fold change /veh LOC730098 (11760151_x_at) / RFU OR4N2 (11742367_at) / Fold change /veh OR4N2 (11742367_at) / RFU PRRT2 (11749266_a_at) / Fold change /veh PRRT2 (11749266_a_at) / RFU SNX32 (11753110_a_at) / Fold change /veh SNX32 (11753110_a_at) / RFU CDHR5 (11726645_a_at) / Fold change /veh CDHR5 (11726645_a_at) / RFU RCAN1 (11760418_a_at) / Fold change /veh RCAN1 (11760418_a_at) / RFU FAM167A (11723789_a_at) / Fold change /veh FAM167A (11723789_a_at) / RFU FAM26E (11764081_at) / Fold change /veh FAM26E (11764081_at) / RFU ISYNA1 (11749810_s_at) / Fold change /veh ISYNA1 (11749810_s_at) / RFU ACY1 (11761880_at) / Fold change /veh ACY1 (11761880_at) / RFU 11764098_at / Fold change /veh 11764098_at / RFU SAMD14 (11745864_x_at) / Fold change /veh SAMD14 (11745864_x_at) / RFU NPB (11741838_a_at) / Fold change /veh NPB (11741838_a_at) / RFU TMPRSS6 (11731388_a_at) / Fold change /veh TMPRSS6 (11731388_a_at) / RFU KRTAP10-2 (11738614_at) / Fold change /veh KRTAP10-2 (11738614_at) / RFU ARHGAP8 /// PRR5-ARHGAP8 (11727945_x_at) / Fold change /veh ARHGAP8 /// PRR5-ARHGAP8 (11727945_x_at) / RFU KRTAP5-7 /// NADSYN1 (11734609_at) / Fold change /veh KRTAP5-7 /// NADSYN1 (11734609_at) / RFU RASL12 (11751679_a_at) / Fold change /veh RASL12 (11751679_a_at) / RFU CDKN2B (11736163_a_at) / Fold change /veh CDKN2B (11736163_a_at) / RFU PRF1 (11729649_at) / Fold change /veh PRF1 (11729649_at) / RFU, ZNF638 /// ZNF638-IT1 / Fold change vs veh, ZNF638 /// ZNF638-IT1 / RFU, PANK3 / Fold change vs veh, PANK3 / RFU, SH3YL1 / Fold change vs veh, SH3YL1 / RFU, ZEB2 / Fold change vs veh, ZEB2 / RFU, NRIP1 / Fold change vs veh, NRIP1 / RFU, PTTG1IP / Fold change vs veh, PTTG1IP / RFU, CAPN2 / Fold change vs veh, CAPN2 / RFU, MED14 / Fold change vs veh, MED14 / RFU, SNORA58 / Fold change vs veh, SNORA58 / RFU, C1orf63 / Fold change vs veh, C1orf63 / RFU, LRRFIP1 / Fold change vs veh, LRRFIP1 / RFU, NDUFAF7 / Fold change vs veh, NDUFAF7 / RFU, SLC12A2 / Fold change vs veh, SLC12A2 / RFU, IBTK / Fold change vs veh, IBTK / RFU, ESF1 / Fold change vs veh, ESF1 / Fold change vs veh, TMEM50B / RFU, TAOK1 / Fold change vs veh, TAOK1 / RFU, ACBD3 / Fold change vs veh, ACBD3 / RFU, TMA16 / Fold change vs veh, TMA16 / RFU, RWDD3 / Fold change vs veh, RWDD3 / RFU, BCAT1 / Fold change vs veh, BCAT1 / RFU, EDEM3 / Fold change vs veh, EDEM3 / RFU, TMEM33 / Fold change vs veh, TMEM33 / RFU, WDR75 / Fold change vs veh, WDR75 / RFU, AHCTF1 / Fold change vs veh, AHCTF1 / RFU, TFRC / Fold change vs veh, TFRC / RFU, ZDHHC17 / Fold change vs veh, ZDHHC17 / RFU, NOM1 / Fold change vs veh, NOM1 / RFU, ARL8B / Fold change vs veh, ARL8B / RFU, ZBTB11 / Fold change vs veh, ZBTB11 / RFU, TAMM41 / Fold change vs veh, TAMM41 / RFU, KIAA1704 /// LOC100996395 / Fold change vs veh, KIAA1704 /// LOC100996395 / RFU, ING1 / Fold change vs veh, ING1 / RFU, TRMT61B / Fold change vs veh, TRMT61B / RFU, FUBP3 / Fold change vs veh, FUBP3 / RFU, TP53 / Fold change vs veh, TP53 / RFU, TNKS2 / Fold change vs veh, TNKS2 / RFU, ZFP14 / Fold change vs veh, ZFP14 / RFU, ACTR2 / Fold change vs veh, ACTR2 / RFU, PPP3R1 / Fold change vs veh, PPP3R1 / RFU, PIK3R1 / Fold change vs veh, PIK3R1 / RFU, HNRNPA1 / Fold change vs veh, HNRNPA1 / RFU, RNF170 / Fold change vs veh, RNF170 / RFU, ZNF28 / Fold change vs veh, ZNF28 / RFU, RNGTT / Fold change vs veh, RNGTT / RFU, OGT / Fold change vs veh, OGT / RFU, BRD1 / Fold change vs veh, BRD1 / RFU, MARS / Fold change vs veh, MARS / RFU, ZNF655 / Fold change vs veh, ZNF655 / RFU, FAHD1 / Fold change vs veh, FAHD1 / RFU, BDP1 / Fold change vs veh, BDP1 / RFU, LRRCC1 / Fold change vs veh, LRRCC1 / RFU, ARID1A / Fold change vs veh, ARID1A / RFU, ZNF146 / Fold change vs veh, ZNF146 / RFU, ZNF330 / Fold change vs veh, ZNF330 / RFU, GPN3 / Fold change vs veh, GPN3 / RFU, C9orf123 / Fold change vs veh, C9orf123 / RFU, N4BP2L2 / Fold change vs veh, N4BP2L2 / RFU, ARFIP1 / Fold change vs veh, ARFIP1 / RFU, FAM179B / Fold change vs veh, FAM179B / RFU, BCL10 / Fold change vs veh, BCL10 / RFU, UHRF1BP1L / Fold change vs veh, UHRF1BP1L / RFU, BET1 / Fold change vs veh, BET1 / RFU, CNOT2 / Fold change vs veh, CNOT2 / RFU, ZNF268 / Fold change vs veh, ZNF268 / Fold change vs veh, ZNF507 / RFU, DGCR2 / Fold change vs veh, DGCR2 / RFU, WDSUB1 / Fold change vs veh, WDSUB1 / Fold change vs veh, HSP90B1 /// MIR3652 / RFU, ADSS / Fold change vs veh, ADSS / RFU, GK / Fold change vs veh, GK / RFU, ZNF148 / Fold change vs veh, ZNF148 / RFU, TAF9 / Fold change vs veh, TAF9 / RFU, SLC1A5 / Fold change vs veh, SLC1A5 / RFU, SLMO2 / Fold change vs veh, SLMO2 / RFU, ABCC4 / Fold change vs veh, ABCC4 / RFU, LOC101060439 /// RAP1B / Fold change vs veh, LOC101060439 /// RAP1B / RFU, RFX7 / Fold change vs veh, RFX7 / RFU, GTPBP10 / Fold change vs veh, GTPBP10 / RFU, CNEP1R1 / Fold change vs veh, CNEP1R1 / RFU, BIVM-ERCC5 /// ERCC5 / Fold change vs veh, BIVM-ERCC5 /// ERCC5 / RFU, ILF3 / Fold change vs veh, ILF3 / RFU 11762660_at / Fold change /veh 11762660_at / RFU VCAN (11757783_s_at) / Fold change /veh VCAN (11757783_s_at) / RFU DDX43 (11728927_at) / Fold change /veh DDX43 (11728927_at) / RFU KRT8 (11758188_x_at) / Fold change /veh KRT8 (11758188_x_at) / RFU NKD1 (11759106_at) / Fold change /veh NKD1 (11759106_at) / RFU SRD5A1 (11742802_a_at) / Fold change /veh SRD5A1 (11742802_a_at) / RFU TPSAB1 /// TPSB2 (11721975_s_at) / Fold change /veh TPSAB1 /// TPSB2 (11721975_s_at) / RFU GSTM3 (11746129_a_at) / Fold change /veh GSTM3 (11746129_a_at) / RFU IL23R (11737362_x_at) / Fold change /veh IL23R (11737362_x_at) / RFU TMEM51 (11727254_a_at) / Fold change /veh TMEM51 (11727254_a_at) / RFU PIWIL2 (11732686_x_at) / Fold change /veh PIWIL2 (11732686_x_at) / RFU ORM1 (11744905_x_at) / Fold change /veh ORM1 (11744905_x_at) / RFU CCDC152 (11743942_at) / Fold change /veh CCDC152 (11743942_at) / RFU ECM1 (11717891_a_at) / Fold change /veh ECM1 (11717891_a_at) / RFU IL23R (11748794_a_at) / Fold change /veh IL23R (11748794_a_at) / RFU TNFAIP8L3 (11732012_x_at) / Fold change /veh TNFAIP8L3 (11732012_x_at) / RFU MBOAT4 (11741988_at) / Fold change /veh MBOAT4 (11741988_at) / RFU 11764193_at / Fold change /veh 11764193_at / RFU TMEM53 (11763286_at) / Fold change /veh TMEM53 (11763286_at) / RFU MAGEB2 (11727129_at) / Fold change /veh MAGEB2 (11727129_at) / RFU TMEM200A (11744735_a_at) / Fold change /veh TMEM200A (11744735_a_at) / RFU CCDC152 (11751479_a_at) / Fold change /veh CCDC152 (11751479_a_at) / RFU FAM211A (11726209_a_at) / Fold change /veh FAM211A (11726209_a_at) / RFU RGS16 (11746705_a_at) / Fold change /veh RGS16 (11746705_a_at) / RFU VCAN (11755009_s_at) / Fold change /veh VCAN (11755009_s_at) / RFU RHOB (11743442_s_at) / Fold change /veh RHOB (11743442_s_at) / RFU RGS16 (11720943_a_at) / Fold change /veh RGS16 (11720943_a_at) / RFU RGS16 (11720944_at) / Fold change /veh RGS16 (11720944_at) / RFU, VPS4B / Fold change vs veh, VPS4B / RFU, CREB1 / Fold change vs veh, CREB1 / RFU, DNAJC13 / Fold change vs veh, DNAJC13 / RFU, GNAQ / Fold change vs veh, GNAQ / RFU, CDK5R1 / Fold change vs veh, CDK5R1 / RFU, ZRANB3 / Fold change vs veh, ZRANB3 / RFU, CUL4A / Fold change vs veh, CUL4A / RFU, CCNY / Fold change vs veh, CCNY / RFU, UFL1 / Fold change vs veh, UFL1 / RFU, COG3 / Fold change vs veh, COG3 / RFU, DIAPH2 / Fold change vs veh, DIAPH2 / RFU, SKA2 / Fold change vs veh, SKA2 / RFU, AFF3 / Fold change vs veh, AFF3 / RFU, LMF1 / Fold change vs veh, LMF1 / RFU, IPO11 / Fold change vs veh, IPO11 / RFU, DFFB / Fold change vs veh, DFFB / RFU, FOXP1 / Fold change vs veh, FOXP1 / RFU, CARD8 / Fold change vs veh, CARD8 / RFU, STRN3 / Fold change vs veh, STRN3 / RFU, ADK / Fold change vs veh, ADK / RFU, RASSF2 / Fold change vs veh, RASSF2 / RFU, WIPF1 / Fold change vs veh, WIPF1 / RFU, LARP1B / Fold change vs veh, LARP1B / RFU, RASA1 / Fold change vs veh, RASA1 / RFU, RB1 / Fold change vs veh, RB1 / RFU, PPFIA1 / Fold change vs veh, PPFIA1 / RFU, MAT2A / Fold change vs veh, MAT2A / RFU, CCT5 / Fold change vs veh, CCT5 / RFU, WDR92 / Fold change vs veh, WDR92 / RFU, CUX1 / Fold change vs veh, CUX1 / RFU, TTC7A / Fold change vs veh, TTC7A / RFU, TMEM135 / Fold change vs veh, TMEM135 / RFU, DEPTOR / Fold change vs veh, DEPTOR / RFU, CPM / Fold change vs veh, CPM / RFU, DNAJB6 / Fold change vs veh, DNAJB6 / RFU, CACNA2D3 / Fold change vs veh, CACNA2D3 / RFU, DTX4 / Fold change vs veh, DTX4 / RFU, TFCP2 / Fold change vs veh, TFCP2 / RFU, GMCL1 /// GMCL1P1 / Fold change vs veh, GMCL1 /// GMCL1P1 / RFU, AEBP2 / Fold change vs veh, AEBP2 / RFU, SNHG1 /// SNORD22 /// SNORD25 /// SNORD26 /// SNORD27 /// SNORD28 /// SNORD29 /// SNORD31 / Fold change vs veh, SNHG1 /// SNORD22 /// SNORD25 /// SNORD26 /// SNORD27 /// SNORD28 /// SNORD29 /// SNORD31 / Fold change (Aza/veh), C12orf56 (ProbeSet 11735607_a_at) / Fold change (ACY-1035/veh), C12orf56 (ProbeSet 11735607_a_at) / Fold change (Aza/veh), FGFR1OP (ProbeSet 11751329_s_at) / Fold change (ACY-1035/veh), FGFR1OP (ProbeSet 11751329_s_at) / Fold change (Aza/veh), VPS36 (ProbeSet 11739960_a_at) / Fold change (ACY-1035/veh), VPS36 (ProbeSet 11739960_a_at) / RFU SYPL1 (11715823_x_at) / Fold change /veh SYPL1 (11715823_x_at) / RFU IGFBP7 (11715501_s_at) / Fold change /veh IGFBP7 (11715501_s_at) / RFU REEP3 (11722064_at) / Fold change /veh REEP3 (11722064_at) / RFU IGLL1 (11728026_x_at) / Fold change /veh IGLL1 (11728026_x_at): dose or concentration left out as unconfirmed
Conditions: ProbeSet 11758170_s_at; LIST D

Structure (SMILES): Nc1ccc(-c2cccs2)cc1NC(=O)c1ccc2c(c1)cc(C1CC1)n2CCN1CCOCC1 [ACY-1035]
- RFU, DIAPH2: 32.47 RFU
